Activity calls are given as the source filed them.
Experiments:
[1] = THP-1 cell cytotoxicity, dose response, cytotoxicity control for non-replicating M. tuberculosis project (AID 489025); format: functional
[2] = microbe, parasite or virus in culture; format: functional; details: Mycobacterium tuberculosis
[3] = Vero E6 cell cytotoxicity, dose response, cytotoxicity control for non-replicating M. tuberculosis project, secondary assay (AID 492998); format: functional, VeroE6; details: Vero C1008
[4] = molecular target: T1, Protein RecA (Mycobacterium tuberculosis, UniProt P9WHJ3); assay: Fluorescence Cell-Free Homogeneous Dose Retest to Identify Inhibitors of RecA-Intein Splicing Activity. [Related pubchem assays (depositor defined):AID2097, AID2223, AID489010, AID492950]; format: functional
T1 sequence (P9WHJ3 whole entry): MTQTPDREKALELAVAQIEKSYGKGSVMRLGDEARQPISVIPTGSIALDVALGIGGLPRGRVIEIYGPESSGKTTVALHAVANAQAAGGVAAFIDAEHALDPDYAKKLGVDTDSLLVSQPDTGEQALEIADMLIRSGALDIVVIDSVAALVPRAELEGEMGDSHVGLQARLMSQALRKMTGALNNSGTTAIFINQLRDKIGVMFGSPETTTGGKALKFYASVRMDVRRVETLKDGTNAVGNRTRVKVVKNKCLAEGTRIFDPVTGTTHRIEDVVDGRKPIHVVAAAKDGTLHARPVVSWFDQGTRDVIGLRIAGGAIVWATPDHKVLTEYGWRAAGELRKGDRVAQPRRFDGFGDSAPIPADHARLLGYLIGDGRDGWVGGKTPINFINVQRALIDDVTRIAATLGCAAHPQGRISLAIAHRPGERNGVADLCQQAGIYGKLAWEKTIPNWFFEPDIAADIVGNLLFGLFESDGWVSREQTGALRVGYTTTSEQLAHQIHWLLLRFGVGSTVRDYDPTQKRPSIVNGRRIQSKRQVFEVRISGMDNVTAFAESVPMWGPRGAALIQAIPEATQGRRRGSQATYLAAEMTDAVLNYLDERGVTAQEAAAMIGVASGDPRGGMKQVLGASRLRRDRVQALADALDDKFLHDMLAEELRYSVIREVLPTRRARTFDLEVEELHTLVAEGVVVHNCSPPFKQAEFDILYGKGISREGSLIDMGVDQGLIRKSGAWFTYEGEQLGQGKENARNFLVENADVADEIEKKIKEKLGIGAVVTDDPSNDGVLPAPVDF

[5] = HepG2 cell cytotoxicity, dose response, cytotoxicity control for Shn3 inhibitor project, CellTiter-Glo, cherry-picked (AID 624134); format: functional, cell-based
[6] = cells; format: functional
[7] = Shn3 3'UTR reporter inhibitors, dose response, cell-based, Clone20 osteoblasts, firefly luciferase, cherry-picked (AID 624132); format: functional;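 further: firefly luciferase luminescence from reporter carrying the Shn3 3'UTR in osteoblasts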
[8] = molecular target: T2, Replicative DNA helicase DnaB (Mycobacterium tuberculosis, UniProt P9WMR3); assay: DnaB intein splicing inhibitors, dose response, biochemical, cell-free fluorescence (AID 449749); format: functional
T2 sequence (P9WMR3 whole entry): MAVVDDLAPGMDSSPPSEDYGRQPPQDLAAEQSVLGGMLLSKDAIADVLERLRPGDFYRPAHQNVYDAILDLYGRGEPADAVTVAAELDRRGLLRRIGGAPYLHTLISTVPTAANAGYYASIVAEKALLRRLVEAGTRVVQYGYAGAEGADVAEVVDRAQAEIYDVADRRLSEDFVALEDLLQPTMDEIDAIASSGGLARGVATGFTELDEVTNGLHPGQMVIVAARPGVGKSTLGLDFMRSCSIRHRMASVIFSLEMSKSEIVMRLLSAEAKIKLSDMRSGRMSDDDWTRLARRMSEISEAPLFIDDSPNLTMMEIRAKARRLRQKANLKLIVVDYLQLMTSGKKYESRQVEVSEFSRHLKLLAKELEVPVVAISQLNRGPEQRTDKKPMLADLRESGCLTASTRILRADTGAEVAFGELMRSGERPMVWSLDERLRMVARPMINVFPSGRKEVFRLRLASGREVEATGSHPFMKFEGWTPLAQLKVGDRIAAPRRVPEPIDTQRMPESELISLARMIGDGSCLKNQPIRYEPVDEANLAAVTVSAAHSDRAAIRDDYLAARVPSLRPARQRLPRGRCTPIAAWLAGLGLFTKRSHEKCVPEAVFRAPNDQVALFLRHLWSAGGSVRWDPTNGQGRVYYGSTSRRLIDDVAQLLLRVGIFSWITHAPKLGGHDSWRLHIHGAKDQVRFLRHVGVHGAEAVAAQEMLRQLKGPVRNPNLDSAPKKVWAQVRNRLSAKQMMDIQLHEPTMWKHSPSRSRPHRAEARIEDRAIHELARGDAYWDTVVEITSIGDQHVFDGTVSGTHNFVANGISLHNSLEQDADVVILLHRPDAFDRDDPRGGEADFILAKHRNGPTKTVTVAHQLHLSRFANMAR

[9] = control 3'UTR Renilla luciferase suppression, dose response, counter-screen for Shn3 inhibitor project, cell-based, Clone20-Shn3RL, cherry-picked (AID 624133); format: functional
[10] = molecular target: Paired box protein Pax-8 (Homo sapiens, UniProt Q06710); assay: inhibitors of PAX8-driven TPO luciferase reporter, dose response, RMG-I cells, cherry-pick (AID 687027); format: functional, cell-based;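 further: luciferase reporter driven by Pax8 target thyroperoxidase promoter measured by SteadyGlo luminescence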
[11] = molecular target: T3, Caspase-6 (Homo sapiens, UniProt P55212); assay: human caspase-6 inhibitors, dose response, biochemical, VEID-R110 fluorescence, cherry-pick (AID 720632)
T3 sequence (P55212 whole entry): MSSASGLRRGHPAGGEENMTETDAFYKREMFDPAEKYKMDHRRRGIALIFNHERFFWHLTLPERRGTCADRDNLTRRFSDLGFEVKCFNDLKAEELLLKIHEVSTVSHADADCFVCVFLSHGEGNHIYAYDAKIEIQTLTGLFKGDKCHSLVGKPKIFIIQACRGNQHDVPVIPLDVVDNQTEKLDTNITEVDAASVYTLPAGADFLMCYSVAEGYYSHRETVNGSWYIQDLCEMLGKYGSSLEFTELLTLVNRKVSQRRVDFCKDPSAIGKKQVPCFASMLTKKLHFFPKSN

[12] = molecular target: T4, Microphthalmia-associated transcription factor (Homo sapiens, UniProt O75030); assay: TRPM1 promoter luciferase signal decrease, dose response, MITF inhibitor project, cell-based, SK-MEL-5, cherry-picked, set 3 (AID 493073); format: functional
T4 sequence (O75030 whole entry): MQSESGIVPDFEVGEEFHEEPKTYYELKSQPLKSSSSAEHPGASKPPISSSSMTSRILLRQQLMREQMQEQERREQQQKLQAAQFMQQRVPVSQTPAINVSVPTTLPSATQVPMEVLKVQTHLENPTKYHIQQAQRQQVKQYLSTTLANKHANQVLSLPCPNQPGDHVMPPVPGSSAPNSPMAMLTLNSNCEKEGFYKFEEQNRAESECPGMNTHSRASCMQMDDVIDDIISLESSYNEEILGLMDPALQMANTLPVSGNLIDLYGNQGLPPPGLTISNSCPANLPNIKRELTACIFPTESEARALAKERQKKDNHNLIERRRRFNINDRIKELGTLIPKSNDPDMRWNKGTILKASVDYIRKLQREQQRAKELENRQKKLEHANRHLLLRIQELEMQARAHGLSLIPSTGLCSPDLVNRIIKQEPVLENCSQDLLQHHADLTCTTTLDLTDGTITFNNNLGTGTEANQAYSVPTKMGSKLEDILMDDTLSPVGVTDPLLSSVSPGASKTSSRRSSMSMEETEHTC

[13] = molecular target: T5, Coagulation factor XII (Homo sapiens, UniProt P00748); format: functional;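 further: activated factor XIIa alpha cleaving a fluorogenic AMC peptide substrate; inhibitor potency from loss of enzyme activity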
T5 sequence (P00748 whole entry): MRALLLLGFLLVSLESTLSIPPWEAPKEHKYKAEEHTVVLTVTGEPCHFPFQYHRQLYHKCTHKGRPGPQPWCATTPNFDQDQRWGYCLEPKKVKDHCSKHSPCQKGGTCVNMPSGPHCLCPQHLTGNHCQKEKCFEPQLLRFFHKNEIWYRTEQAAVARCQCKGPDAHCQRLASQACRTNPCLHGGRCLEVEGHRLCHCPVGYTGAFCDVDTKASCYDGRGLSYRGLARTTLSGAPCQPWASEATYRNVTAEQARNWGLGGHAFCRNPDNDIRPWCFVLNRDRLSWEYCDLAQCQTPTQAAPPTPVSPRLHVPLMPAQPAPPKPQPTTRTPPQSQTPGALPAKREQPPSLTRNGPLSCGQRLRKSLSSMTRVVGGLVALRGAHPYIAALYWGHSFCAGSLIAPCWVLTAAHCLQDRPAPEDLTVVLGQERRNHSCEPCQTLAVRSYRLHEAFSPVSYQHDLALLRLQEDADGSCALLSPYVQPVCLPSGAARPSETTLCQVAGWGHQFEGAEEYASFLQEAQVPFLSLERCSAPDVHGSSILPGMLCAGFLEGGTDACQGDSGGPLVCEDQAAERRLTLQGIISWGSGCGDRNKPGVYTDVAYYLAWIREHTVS

[14] = molecular target: SUMO-activating enzyme (Homo sapiens, UniProt Q9UBT2); assay: SUMOylation inhibitor hit validation, confirmation, SUMOylation inhibitor project, biochemical, AlphaScreen (AID 2018); format: functional
[15] = molecular target: Eukaryotic translation initiation factor 4E (Mus musculus, UniProt P63073); assay: eIF4E–eIF4G protein interaction inhibitors, dose response, biochemical, TR-FRET (AID 855); format: functional;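 further: potency for disrupting eIF4E binding to eIF4GI seen as loss of FRET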
Chain of Eukaryotic translation initiation factor 4E (P63073 whole entry): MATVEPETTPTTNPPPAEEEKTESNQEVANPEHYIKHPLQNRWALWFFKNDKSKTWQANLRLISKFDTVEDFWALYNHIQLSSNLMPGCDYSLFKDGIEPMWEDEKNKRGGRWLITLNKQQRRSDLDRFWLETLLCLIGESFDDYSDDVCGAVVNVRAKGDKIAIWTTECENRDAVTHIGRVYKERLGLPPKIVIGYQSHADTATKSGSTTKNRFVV

Chain of Paired box protein Pax-8 (Q06710 whole entry): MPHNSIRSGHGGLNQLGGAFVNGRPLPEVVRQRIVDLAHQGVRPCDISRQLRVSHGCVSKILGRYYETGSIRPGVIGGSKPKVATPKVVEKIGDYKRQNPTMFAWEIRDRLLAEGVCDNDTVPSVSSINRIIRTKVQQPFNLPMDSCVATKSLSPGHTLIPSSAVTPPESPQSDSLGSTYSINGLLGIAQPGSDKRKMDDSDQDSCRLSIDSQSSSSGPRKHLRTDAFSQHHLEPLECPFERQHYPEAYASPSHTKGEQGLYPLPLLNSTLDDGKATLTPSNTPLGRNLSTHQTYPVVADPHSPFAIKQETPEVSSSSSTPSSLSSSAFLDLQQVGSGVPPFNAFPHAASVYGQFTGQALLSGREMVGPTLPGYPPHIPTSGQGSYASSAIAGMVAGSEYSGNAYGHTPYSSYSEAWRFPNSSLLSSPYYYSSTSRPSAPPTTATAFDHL
Chain of SUMO-activating enzyme (Q9UBE0 whole entry): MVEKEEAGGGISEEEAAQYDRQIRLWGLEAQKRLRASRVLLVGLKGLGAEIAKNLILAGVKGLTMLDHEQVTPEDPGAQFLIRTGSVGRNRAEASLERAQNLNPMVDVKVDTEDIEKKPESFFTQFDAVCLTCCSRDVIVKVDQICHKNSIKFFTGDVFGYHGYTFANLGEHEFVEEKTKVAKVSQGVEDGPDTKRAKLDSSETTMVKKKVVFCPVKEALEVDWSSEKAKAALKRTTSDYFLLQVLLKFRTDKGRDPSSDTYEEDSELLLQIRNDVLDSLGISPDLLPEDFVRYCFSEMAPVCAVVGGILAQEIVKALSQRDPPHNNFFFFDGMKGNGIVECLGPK
Chain of SUMO-activating enzyme (Q9UBT2 whole entry): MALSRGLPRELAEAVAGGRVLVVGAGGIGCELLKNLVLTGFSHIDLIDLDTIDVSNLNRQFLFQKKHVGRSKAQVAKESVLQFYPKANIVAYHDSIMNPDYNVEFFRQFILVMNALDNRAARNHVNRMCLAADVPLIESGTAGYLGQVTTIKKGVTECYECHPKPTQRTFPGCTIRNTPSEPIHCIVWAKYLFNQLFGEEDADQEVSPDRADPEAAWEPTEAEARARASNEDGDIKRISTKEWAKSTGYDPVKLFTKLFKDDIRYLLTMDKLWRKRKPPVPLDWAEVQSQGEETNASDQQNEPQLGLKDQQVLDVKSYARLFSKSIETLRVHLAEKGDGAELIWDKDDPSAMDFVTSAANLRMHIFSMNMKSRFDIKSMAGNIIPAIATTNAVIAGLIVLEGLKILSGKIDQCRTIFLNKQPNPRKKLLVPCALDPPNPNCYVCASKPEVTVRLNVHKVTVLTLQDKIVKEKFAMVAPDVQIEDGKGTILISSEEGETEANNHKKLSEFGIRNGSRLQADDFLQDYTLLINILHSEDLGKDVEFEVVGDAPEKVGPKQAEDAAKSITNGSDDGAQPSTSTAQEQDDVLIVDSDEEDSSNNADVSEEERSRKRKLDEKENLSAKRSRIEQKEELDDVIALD

**Q.** For `COC(=O)/C(=C1/Oc2cc(C)oc(=O)c2S1)C(F)(F)F`, which CC50 [1] is on record?
**A.** 10.2 µM (active)

**Q.** What about the CC50 [2] of the same molecule?
**A.** 9.91 µM (active)

**Q.** And the CC50 [3]?
**A.** 7.26 µM (active)

**Q.** What about the EC50 [4] of the same molecule?
**A.** 3.74 µM (active)

**Q.** And the AC50 [5]?
**A.** 43 µM (active)

**Q.** What about the IC50 [6] of the same molecule?
**A.** 1.64 µM (active)

**Q.** What about the AC50 [7] of the same molecule?
**A.** 4.64 µM (active)

**Q.** What about the AC50 [8] of the same molecule?
**A.** > 380 µM (inactive)

**Q.** What about the AC50 [9] of the same molecule?
**A.** 16.6 µM (active)

**Q.** Which CC50 [1] does the source give for `CSc1ccc(C(=O)C2CCCN(C(=O)c3ccc4c(c3)no[n+]4[O-])C2)cc1` (stereo unspecified) here?
**A.** 39.4 µM (active)

**Q.** What about the CC50 [2] of the same molecule?
**A.** 10.8 µM (active)

**Q.** What about the CC50 [3] of the same molecule?
**A.** 13.7 µM (active)

**Q.** And the IC50 [6]?
**A.** 1.5 µM (active)

**Q.** What does the source list for `CC(=O)N1CCc2c(sc(NC(=O)c3ccc([N+](=O)[O-])o3)c2C#N)C1`?
**A.** AC50 [10]: 2.71 µM (active); AC50 [11]: 26.6 µM (active); AC50 [12]: 2.22 µM (active)

**Q.** With `O=C(Nc1cc(=O)[nH]c2ncnn12)c1ccco1` as the molecule, how does the IC50 [13] read?
**A.** > 50 µM (inactive)

**Q.** With `COc1cc(OC)c(/C=N/NC(=O)c2ccc(NC(C)=O)cc2)cc1Br` as the molecule, how does the IC50 [14] read?
**A.** 22.1 µM (active)

**Q.** What about the IC50 [15] of the same molecule?
**A.** 50 µM (inactive)

**Q.** Which IC50 [13] does the source give for `O=C1c2oc3ccccc3c(=O)c2C(c2cccc(F)c2)N1CCCO` (stereo unspecified) here?
**A.** > 50 µM (inactive)

**Q.** With `Cc1ccc(C(=O)NCC(=O)OC(C)C(=O)Nc2ccc(N3CCOCC3)cc2)s1` (stereo unspecified) as the molecule, how does the IC50 [13] read?
**A.** > 50 µM (inactive)

From ChEMBL document CHEMBL1201862, “PubChem BioAssay data set” (2004)
